Format in all cases: in vivo
In test [1] the test system is Alopecurus myosuroides (ALOMY). Description: Pre-emergence biological efficacy, glasshouse pot test. The conditions noted are these: 312 h, pre-emergence, 1,000 g/ha, evaluated after 13 days (100=total damage; 0=no damage), read-out: Percentage damage ALOMY. The procedure, abridged:
(§1)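 Damage rated 0–100 (100 = total kill) 13 days post-spray. Pots of standard soil were sown and sprayed after one day with test compound at 1000 or 250 g/ha in acetone/water (50:50) plus 0.5% Tween 20.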

Test [2] relates to Amaranthus retoflexus (AMARE). Described as above. The conditions noted are these: Amaranthus retroflexus, 312 h; pre-emergence, 1,000 g/ha, evaluated after 13 days (100=total damage; 0=no damage); read-out: Percentage damage AMARE. Put shortly: as §1
Test [3] deals with Echinochloa crus-galli (ECHCG). Described as above. Particulars: 312 h, pre-emergence, 1,000 g/ha, evaluated after 13 days (100=total damage; 0=no damage), read-out: Percentage damage ECHCG. Put shortly:
as §1

The subject of test [4] is Ipomea hederaceae (IPOHE). The description is as above. The conditions noted are these: Ipomoea hederacea, 312 h; pre-emergence, 1,000 g/ha, evaluated after 13 days (100=total damage; 0=no damage); read-out: Percentage damage IPOHE. The procedure, abridged: as §1
The subject of test [5] is Setaria faberi (SETFA). Described as above. Particulars: 312 h, pre-emergence, 1,000 g/ha, evaluated after 13 days (100=total damage; 0=no damage), read-out: Percentage damage SETFA. The procedure, abridged:
as §1

The test system of test [6] is Solanum nigrum (SOLNI). The test is described as above. The conditions noted are these: 312 h, pre-emergence, 1,000 g/ha, evaluated after 13 days (100=total damage; 0=no damage), read-out: Percentage damage SOLNI. Put shortly:
as §1

The subject of test [7] is Alopecurus myosuroides (ALOMY). Description: Post-emergence biological efficacy, glasshouse pot test. Particulars: 312 h, post-emergence, 1,000 g/ha, evaluated after 13 days (100=total damage; 0=no damage), read-out: Percentage damage caused to weed species, ALOMY. Put shortly:
(§2)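 Pot-grown weeds were sprayed 8 days after sowing with test compound in acetone/water (50:50) with 0.5% Tween 20 at 1000 or 250 g/ha. Glasshouse at 24/16° C day/night, 14 h light, 65% humidity. Damage scored 0-100 (100 = total damage) after 13 days.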

Test [8] relates to Amaranthus retoflexus (AMARE). The test is described as above. Particulars: Amaranthus retroflexus, 312 h; post-emergence, 1,000 g/ha, evaluated after 13 days (100=total damage; 0=no damage); read-out: Percentage damage caused to weed species, AMARE. Put shortly: as §2
In test [9] the test system is Echinochloa crus-galli (ECHCG). The description is as above. The conditions noted are these: 312 h, post-emergence, 1,000 g/ha, evaluated after 13 days (100=total damage; 0=no damage), read-out: Percentage damage caused to weed species, ECHCG. The procedure, abridged: as §2
In test [10] the test system is Ipomea hederaceae (IPOHE). The test is described as above. Particulars: Ipomoea hederacea, 312 h; post-emergence, 1,000 g/ha, evaluated after 13 days (100=total damage; 0=no damage); read-out: Percentage damage caused to weed species, IPOHE. The procedure, abridged:
as §2

In test [11] the test system is Setaria faberi (SETFA). The test is described as above. The conditions noted are these: 312 h, post-emergence, 1,000 g/ha, evaluated after 13 days (100=total damage; 0=no damage), read-out: Percentage damage caused to weed species, SETFA. The procedure, abridged:
as §2

Test [12] concerns Solanum nigrum (SOLNI). The description is as above. Particulars: 312 h, post-emergence, 1,000 g/ha, evaluated after 13 days (100=total damage; 0=no damage), read-out: Percentage damage caused to weed species, SOLNI. The procedure, abridged:
as §2

As for `Cc1cccnc1CNc1nc(C2CC2)nc(C(=O)O)c1Cl` [Compound 1-153, 5-Chloro-2-cyclopropyl-4-(3-methylpyridin-2-ylmethylamino)-pyrimidine-6-carboxylic acid], the pest or weed control at 1000 g/ha stood at 40% in test [1]; 100% in test [2]; 50% in test [3]; 100% in [4]; 70% in the test with Setaria faberi (SETFA) [5]; 90% in the test with Solanum nigrum (SOLNI) [6]. In addition, the pest or weed control at 1000 g/ha was found to be 50% in [7]; 100% in test [8]; 60% in [9]; 70% in test [10]; 90% in the test on Setaria faberi (SETFA) [11]; 90% in the test with Solanum nigrum (SOLNI) [12].
As for `CC(Nc1nc(C2CC2)nc(C(=O)O)c1Cl)c1ccc(Cl)cc1` (stereo not drawn) [Compound 1-176, 5-Chloro-4-[1-(4-chlorophenyl)ethyl-amino]-2-cyclopropyl-pyrimidine-6-carboxylic acid], the pest or weed control at 1000 g/ha (in [1]; in [2]; in [3]; in test [4]; in the test on Setaria faberi (SETFA) [5]; in the test on Solanum nigrum (SOLNI) [6]) was 0% throughout. Also, the pest or weed control at 1000 g/ha in test [7] was found to be 10%; in test [8], 40%; in [9] it was 10%; in [10], 40%; in the test on Setaria faberi (SETFA) [11], 20%; in the test on Solanum nigrum (SOLNI) [12], 60%.
Consider `COC(=O)c1nc(C2CC2)nc(NC2CC2)c1Cl` [Compound 4-1, 5-Chloro-2-cyclopropyl-4-cyclopropylamino-6-methoxycarbonyl-pyrimidine], for which the pest or weed control at 1000 g/ha turned out to be 40% in [1]; 100% in test [2]; 50% in [3]; 90% in [4]; 60% with Setaria faberi (SETFA) [5]; 100% in the test with Solanum nigrum (SOLNI) [6]. Further, the pest or weed control at 1000 g/ha in [7] came out at 60%; in test [8] it was 100%; in test [9], 60%; in test [10], 90%; with Setaria faberi (SETFA) [11] it was 80%; with Solanum nigrum (SOLNI) [12], 100%.
With `COC(=O)c1nc(C2CC2)nc(NC2(c3ccc(Cl)cc3)CC2)c1Cl` [Compound 4-5, 5-Chloro-4-[1-(4-chlorophenyl)cyclo-propylamino]-2-cyclopropyl-6-methoxycarbonyl-pyrimidine], the pest or weed control at 1000 g/ha in test [1] turned out to be 0%; in test [2] it was 40%; in test [3], 0%; in [4] it was 40%; in the test on Setaria faberi (SETFA) [5], 0%; in the test with Solanum nigrum (SOLNI) [6], 0%. For the same compound, the pest or weed control at 1000 g/ha was 20% in [7]; 100% in test [8]; 0% in [9]; 70% in test [10]; 40% in the test with Setaria faberi (SETFA) [11]; 80% in the test with Solanum nigrum (SOLNI) [12].
In the case of `COC(=O)c1nc(C2CC2)nc(NC2(c3ccc(Cl)cc3Cl)CC2)c1Cl` [Compound 4-6], the pest or weed control at 1000 g/ha in test [1] worked out at 0%; in [2], 40%; in test [3], 0%; in test [4], 10%; in the test with Setaria faberi (SETFA) [5], 0%; with Solanum nigrum (SOLNI) [6], 20%. The pest or weed control at 1000 g/ha stood at 20% in test [7]; 100% in test [8]; 20% in test [9]; 60% in test [10]; 0% with Setaria faberi (SETFA) [11]; 40% with Solanum nigrum (SOLNI) [12].
For `COC(=O)c1nc(C2CC2)nc(NC2(c3ccccn3)CC2)c1Cl` [Compound 4-10, 5-Chloro-2-cyclopropyl-6-methoxycarbonyl-4-(1-pyrid-2-ylcyclo-propylamino)-pyrimidine], the pest or weed control at 1000 g/ha in [1] was determined as 0%; in [2], 30%; in test [3], 0%; in [4] it was 80%; in the test on Setaria faberi (SETFA) [5], 0%; with Solanum nigrum (SOLNI) [6] it was 20%. The pest or weed control at 1000 g/ha in [7] came to 20%; in test [8] it was 60%; in test [9] it was 0%; in test [10] it was 50%; with Setaria faberi (SETFA) [11], 0%; in the test on Solanum nigrum (SOLNI) [12], 40%.
In the case of `COC(=O)c1nc(C2CC2)nc(NC2(c3cccc(C)n3)CC2)c1Cl` [Compound 4-13, 5-Chloro-2-cyclopropyl-6-methoxycarbonyl-4-[1-(6-methylpyrid-2-yl)-cyclopropyl-amino]-pyrimidine], the pest or weed control at 1000 g/ha is 0% in test [1]; 20% in test [2]; 0% in test [3]; 50% in test [4]; 0% with Setaria faberi (SETFA) [5]; 20% in the test on Solanum nigrum (SOLNI) [6]. In addition, the pest or weed control at 1000 g/ha in test [7] is 20%; in test [8], 60%; in [9], 0%; in [10] it was 60%; with Setaria faberi (SETFA) [11] it was 0%; in the test with Solanum nigrum (SOLNI) [12] it was 50%.
For the compound `COC(=O)c1nc(C2CC2)nc(NC2(COc3ccc(Cl)cc3)CC2)c1Cl` [Compound 4-16, 5-Chloro-4-[1-(4-chlorophenoxy-methyl)cyclo-propylamino]-2-cyclopropyl-6-methoxycarbonyl-pyrimidine], the pest or weed control at 1000 g/ha in test [1] stood at 0%; in test [2] it was 30%; in test [3] it was 0%; in test [4], 10%; in the test with Setaria faberi (SETFA) [5], 0%; with Solanum nigrum (SOLNI) [6] it was 10%. Further, the pest or weed control at 1000 g/ha came to 20% in test [7]; 100% in test [8]; 40% in [9]; 100% in test [10]; 60% in the test on Setaria faberi (SETFA) [11]; 90% in the test with Solanum nigrum (SOLNI) [12].
`COC(=O)c1nc(C2CC2)nc(NC2(CCc3ccccc3)CC2)c1Cl` [Compound 4-17, 5-Chloro-2-cyclopropyl-6-methoxycarbonyl-4-[1-(2-phenylethyl)-cyclopropylamino]-pyrimidine]: the pest or weed control at 1000 g/ha in test [1] came out at 10%; in [2] it was 50%; in test [3], 20%; in test [4], 70%; with Setaria faberi (SETFA) [5], 0%; in the test with Solanum nigrum (SOLNI) [6], 10%. The pest or weed control at 1000 g/ha in [7] came out at 20%; in test [8], 100%; in test [9], 30%; in [10], 60%; in the test with Setaria faberi (SETFA) [11], 60%; in the test with Solanum nigrum (SOLNI) [12] it was 70%.

Source of the values: patent US20110086759A1, “CHEMICAL COMPOUNDS” (SYNGENTA CROP PROTECTION, INC., priority 2007, published 2011).
